US11058745B1, “Stable liquid pharmaceutical compositions of daptomycin” (JNF LLC., priority 2018, dated 2021)

Experiment: Chemical stability of daptomycin formulations on storage (daptomycin peak purity, anhydrodaptomycin impurity)
Format: physicochemical
Conditions: with only propylene glycol, 2-8° C.
Method: For purposes of the present invention, “stable” or “substantially stable” with respect to liquid daptomycin compositions shall be understood to mean compositions having less than about 5% anhydrodaptomycin impurity compared to a reference standard and/or having a peak purity of at least about 95% after 1 month at room temperature or 12 months at refrigerated temperatures of from about 2 to about 8° C. Impurity and peak purity calculated based on integration of major impurity anhydrodaptomycin and daptomycin peaks only and minor impurities not accounted for calculations.
Note: Impurities presented here represent increase compared to standard injections. The peak at RRT of about 1.12 (Anhydrodaptomycin) is major impurity that increases over the time. The same impurity is also present in standard injections to the extent of 0.6 to 0.8%. Here onwards, impurity means it is Anhydrodaptomycin and peak purity refers to area percentage of Daptomycin, when only two peaks are integrated, Daptomycin and Anhydrodaptomycin.
Note: Impurities presented here represent increase compared to standard injections. The peak at RRT 1.12 (Anhydrodaptomycin) is major impurity that increases over the time. The same impurity is also present in standard injections to the extent of 0.6 to 0.8%.

stable up to (time): up to 1 month
Compound: CCCCCCCCCC(=O)N[C@@H](Cc1c[nH]c2ccccc12)C(=O)N[C@H](CC(N)=O)C(=O)N[C@@H](CC(=O)O)C(=O)N[C@@H]1C(=O)NCC(=O)N[C@@H](CCCN)C(=O)N[C@@H](CC(=O)O)C(=O)N[C@H](C)C(=O)N[C@@H](CC(=O)O)C(=O)NCC(=O)N[C@H](CO)C(=O)N[C@@H]([C@H](C)CC(=O)O)C(=O)N[C@@H](CC(=O)c2ccccc2N)C(=O)O[C@@H]1C [Daptomycin]
